Consider nine molecules from patent US6346536B1, “Poly(ADP-ribose) polymerase inhibitors and method for treating neural or cardiovascular tissue damage using the same” (Guilford Pharmaceuticals Inc., priority 1997, dated 2002).

The test system of series [1] is ischemia and reperfusion of the heart. Conditions: rabbits, cited from earlier work.
For the next series, the system named is PARP. The settings on record: read-out: IC50 for inhibiting PARP; reported by Suto et al.; cited from earlier work.
In series [2] the target is T1, purified recombinant human PARP (Homo sapiens, UniProt P09874).
T1 construct: purchased Trevigen (Gaithersburg, Md.)
The experiment in a line: PARP enzyme assay using purified recombinant human PARP, [3H]NAD incorporation. It counts as biochemical. Conditions: 25° C., 15 minutes, 3.0 micromolar [3H]NAD, read-out: Approximate IC50's. On the procedure: The reaction is initiated by incubating the mixture at 25° C. After 15 minutes' incubation, the reaction is terminated by adding 500 microliters of ice cold 20% (w/v) trichloroacetic acid. The precipitate formed is transferred onto a glass fiber filter (Packard Unifilter-GF/B) and washed three times with ethanol. After the filter is dried, the radioactivity is determined by scintillation counting.

Series [3] deals with cell viability, glucose metabolism, and DNA synthesis. Conditions: Milam et al., Science 1984; cited from earlier work.

Where two headings read alike, the source gives them in different places.

T1 sequence (P09874 whole entry): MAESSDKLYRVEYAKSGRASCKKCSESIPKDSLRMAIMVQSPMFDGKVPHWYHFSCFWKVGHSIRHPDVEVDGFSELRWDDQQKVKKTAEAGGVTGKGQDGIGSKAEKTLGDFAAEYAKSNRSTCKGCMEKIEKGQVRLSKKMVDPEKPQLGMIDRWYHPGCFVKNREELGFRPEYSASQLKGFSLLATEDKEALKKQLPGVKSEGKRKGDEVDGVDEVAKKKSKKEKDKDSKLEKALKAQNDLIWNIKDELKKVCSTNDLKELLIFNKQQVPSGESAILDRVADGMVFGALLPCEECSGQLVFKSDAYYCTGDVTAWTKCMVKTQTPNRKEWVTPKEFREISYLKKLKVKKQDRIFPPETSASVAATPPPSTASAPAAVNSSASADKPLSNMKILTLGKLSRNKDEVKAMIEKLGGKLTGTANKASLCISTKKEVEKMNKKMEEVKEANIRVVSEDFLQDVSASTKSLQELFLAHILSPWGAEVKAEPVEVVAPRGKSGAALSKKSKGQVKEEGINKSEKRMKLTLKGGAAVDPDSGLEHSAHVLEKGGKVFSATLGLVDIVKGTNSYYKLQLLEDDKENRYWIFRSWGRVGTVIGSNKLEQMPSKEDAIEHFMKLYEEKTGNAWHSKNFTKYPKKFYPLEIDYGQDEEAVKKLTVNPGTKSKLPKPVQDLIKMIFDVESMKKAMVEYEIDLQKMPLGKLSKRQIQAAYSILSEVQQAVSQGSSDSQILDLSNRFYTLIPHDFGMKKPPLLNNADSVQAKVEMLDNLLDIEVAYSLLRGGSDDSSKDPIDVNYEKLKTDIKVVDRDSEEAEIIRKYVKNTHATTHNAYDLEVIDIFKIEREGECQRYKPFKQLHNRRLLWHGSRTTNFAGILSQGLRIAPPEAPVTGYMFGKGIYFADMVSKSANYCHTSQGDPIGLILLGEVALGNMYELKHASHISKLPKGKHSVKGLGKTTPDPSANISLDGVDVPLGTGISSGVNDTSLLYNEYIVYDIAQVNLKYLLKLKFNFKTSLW

Take `Oc1cccc2c(O)nccc12` [1,5-dihydroxyisoquinoline]: the “reduction in infarct size” value in series [1] (single injection 1 mg/kg) was 38-48%.
The term IC50 denotes the concentration at which inhibition is half-maximal. With `O=C1NCCc2c(OCCCCN3CCCCC3)cccc21` [3,4-dihydro-5-[4-(1-piperidinyl)butoxy]1(2H)-isoquinolinone], in the series on PARP, the IC50 is 0.04 µM.
`O=c1[nH]c(-c2ccccc2)cc2ccccc12`: the half-maximal inhibitory concentration (IC50) in series [2] (unit μm [sic]) was determined as 30 µM.
For `COC(=O)c1c[nH]c(=O)c2ccccc12`, the half-inhibitory concentration (IC50) in series [2] came out at 0.8 µM.
For `O=C(O)c1c[nH]c(=O)c2ccccc12`, in series [2], the 50% inhibitory concentration (IC50) turned out to be 10 µM.
With `NC(=O)c1ccccc1` [benzamide], in series [3], the “side effects on other metabolic processes” value is “affect cell viability, glucose metabolism, and DNA synthesis”.
Take `O=c1[nH]ccc2c([N+](=O)[O-])cccc12`: the half-maximal inhibitory concentration (IC50) in series [2] is 10 µM.
As for `NC(=O)c1cccc(N)c1` [3-aminobenzamide], in series [1] (single injection 10 mg/kg, one minute before occlusion or one minute before reperfusion), the “reduction in infarct size in the heart” value is recorded as 32-42%. Further, the “side effects on other metabolic processes” value in series [3] was “affect cell viability, glucose metabolism, and DNA synthesis”.
Consider `O=c1[nH]cc([N+](=O)[O-])c2ccccc12`, for which, in series [2], the IC50 was 5 µM.
